Reference: patent US20120016011A1, “RNA Interference Mediated Inhibition of Connective Tissue Growth Factor (CTGF) Gene Expression Using Short Interfering Nucleic Acid (siNA)” (Merck Sharp & Dohme Corp., priority 2009, published 2012)
[invAb] = inverted abasic unit; d = 2'-deoxy (DNA); m = 2'-O-methyl; r = 2'-OH (RNA); f = 2'-fluoro

How the values were obtained:
[1] = test system: CTGF mRNA; experiment: CTGF mRNA knockdown (Taqman RT-PCR) after siNA transfection of mouse NIH 3T3 cells; format: cell-based; details: mouse NIH3T3 cells, 10 nM siNA, 24 hrs, average of 3 experiments, vs non-targeting control
Procedure: NIH 3T3 (mouse; ATCC cat# CRL-1658): Cells were cultured at 37° C. in the presence of 5% CO2 and grown in Dulbecco's modified Eagle's medium (DMEM) with 4 mM L-glutamine adjusted to contain 1.5 g/L sodium bicarbonate and 4.5 g/L glucose and supplemented with fetal bovine serum at a final concentration of 10%, 100 μg/mL of streptomycin, and 100 U/mL penicillin.
(§1) Cells were plated in all wells of a tissue-culture treated, 96-well plate at a final count of 5000 cells/well in […], of the appropriate culture media. The cells were cultured for 24 hours after plating at 37° C. in the presence of 5% CO2.
(§2) After 24 hours, complexes containing siNA and RNAiMax were created as follows: A solution of RNAiMax diluted 33-fold in OPTI-MEM was prepared. In parallel, solutions of the siNAs for testing were prepared to a final concentration of 120 nM in OPTI-MEM. After incubation of RNAiMax/OPTI-MEM solution at room temperature for 5 min, an equal volume of the siNA solution and the RNAiMax solution were added together for each of the siNAs.
(§3) This solution was incubated at room temperature for 20 minutes. After incubation, 20 uL of the solution was added to each of the relevant wells. The final concentration of siNA in each well was 10 nM and the final volume of RNAiMax in each well was 0.3 ul.
(§4) The time of incubation with the RNAiMax-siNA complexes was 24 hours and there was no change in media between transfection and harvesting, unless otherwise indicated.
(§5) RNA was extracted from a 96-well plate using the TaqMan® Gene Expression Cells-to-CT™ Kit (Cat# 4399002) with a modified protocol. Briefly, a 60 uL (1 plate) or 110 uL (2 plates) of the Lysis Solution with DNase I was dispensed into each well of the Lysis Buffer Plate (twin.tec full skirt plate). The lysis buffer and stop plates were stored at 4° C. until the cells were washed.
(§6) The plate was spun at 1100 rpm for 5 minutes. The culture medium was aspirated and discarded from the wells of the culture plate. The lysis was performed automatically using a BioMek FX instrument and method. After the Biomek method was completed, the lysis plate was incubated for 2 min. at room temperature. The lysis plate can be stored for 2 hours at 4° C., or at −20° C. or −80° C. for two months.
(§7) Each well of the reverse transcription plate required 10 uL of 2× reverse transcriptase Buffer, 1 uL of 20× reverse transcription enzyme and 2 uL of nuclease-free water. The reverse transcription master mix was prepared by mixing 2× reverse transcription buffer, 20× reverse transcription enzyme mix, and nuclease-free water. 13 uL of the reverse transcription master mix was dispensed into each well of the reverse transcription plate (semi-skirted). A separate reverse transcription plate was prepared for each cell plate. The plate was loaded onto a Biomek NX or Biomek FX Dual -96 and the Biomek method was run. The program is programmed to automatically added 7 uL of lysate from the cell lysis procedure described above into each well of the reverse transcription plate. The plate is sealed and spun on a centrifuge (1000 rpm for 30 seconds) to settle the contents to the bottom of the reverse transcription plate. The plate is placed in a thermocycler at 37° C. for 60 min, 95° C. for 5 min, and 4° C. until the plate is removed from the thermocycler. Upon removal, if not used immediately, the plate was frozen at −20° C.
(§8) A series of probes and primers were used to detect the various mRNA transcripts of the genes of β-Actin (human cell line only), and of CTGF and GAPDH in mouse and human cell lines. All Taqman probes and primers for the experiments here-in described were supplied as pre-validated sets by Applied Biosystems, Inc. (see Table 3).
The assays were performed on an ABI 7900 instrument, according to the manufacturer's instructions. A TaqMan Gene Expression Master Mix (provided in the Cells-to-CT™, Applied Biosystems, Cat # 4399002) was used. […]

[2] = test system: CTGF mRNA; experiment: CTGF mRNA knockdown (Taqman RT-PCR) after siNA transfection of human NHLF cells; format: cell-based; details: 10 nM siNA, 24 hrs, average of 3 experiments, vs non-targeting control
Procedure: NHLF (Normal human lung fibroblasts; Lonza cat# CC-2512): Cells were cultured at 37° C. in the presence of 5% CO2 and grown in Fibroblast Basal Medium (Lonza cat# CC-3132) supplemented with 2% FBS and growth factors (provided with the kit) and 100 μg/mL of streptomycin and 100 U/mL penicillin.
as §1, §2, §3, §4, §5, §6, §7, §8
The assays were performed on an ABI 7900 instrument, according to the manufacturer's instructions. A TaqMan Gene Expression Master Mix (provided in the Cells-to-CT™, Applied Biosystems, Cat # 4399002) was used. The PCR reactions were carried out at 50° C. for 2 min, 95° C. for 20 min followed by 40 cycles at 95° C. for 15 secs and 60° C. for 1 min. […]

Row | Substance | % KD Mouse [1] | % KD Human [2]
1 | 48064-DC: siNA duplex; sense SEQ ID NO: 93 B AGuGGAGAuGccAGGAGAA TTB; antisense SEQ ID NO: 94 UUCuccuGGcAucuccAcuUU (sense AGUGGAGAUGCCAGGAGAATT; antisense UUCUCCUGGCAUCUCCACUUU; sense: DNA at AGT, 2'-fluoro at CU, [invAb] at 5' end, 3' end, backbone not given here; antisense: sugars from the 5' end rrrffffmmfmfffffmffmm, backbone not given here) | 58 ± 3% | 6 ± 6%
2 | 48076-DC: siNA duplex; sense SEQ ID NO: 117 B AcAGuAGcAcAuuAAuuuA TTB; antisense SEQ ID NO: 118 UAAAuuAAuGuGcuAcuGuUU (sense ACAGUAGCACAUUAAUUUATT; antisense UAAAUUAAUGUGCUACUGUUU; sense: DNA at AGT, 2'-fluoro at CU, [invAb] at 5' end, 3' end, backbone not given here; antisense: sugars from the 5' end rrrmffmmfmfmffmffmfmm, backbone not given here) | 84 ± 1% | −3 ± 1%
3 | 48058-DC: siNA duplex; sense SEQ ID NO: 81 B cAGuGGAAcuAcAuuAGuA TTB; antisense SEQ ID NO: 82 UACuAAuGuAGuuccAcuGUU (sense CAGUGGAACUACAUUAGUATT; antisense UACUAAUGUAGUUCCACUGUU; sense: DNA at AGT, 2'-fluoro at CU, [invAb] at 5' end, 3' end, backbone not given here; antisense: sugars from the 5' end rrrfmmfmfrmffffmffmmm, backbone not given here) | 17 ± 3% | 79 ± 3%
4 | 48078-DC: siNA duplex; sense SEQ ID NO: 121 B GGuAcuAGcuGAGGuuAuu TTB; antisense SEQ ID NO: 122 AAUAAccucAGcuAGuAccUU (sense GGUACUAGCUGAGGUUAUUTT; antisense AAUAACCUCAGCUAGUACCUU; sense: DNA at AGT, 2'-fluoro at CU, [invAb] at 5' end, 3' end, backbone not given here; antisense: sugars from the 5' end rrrmmffffmmffmmfmffmm, backbone not given here) | 69 ± 1% | 31 ± 6%
5 | 48062-DC: siNA duplex; sense SEQ ID NO: 89 B ccAcucuGccAGuGGAGuu TTB; antisense SEQ ID NO: 90 AACuccAcuGGcAGAGuGGUU (sense CCACUCUGCCAGUGGAGUUTT; antisense AACUCCACUGGCAGAGUGGUU; sense: DNA at AGT, 2'-fluoro at CU, [invAb] at 5' end, 3' end, backbone not given here; antisense: sugars from the 5' end rrrfffmffmmfmmmmfmmmm, backbone not given here) | 12 ± 2% | −1 ± 18%
6 | 48045-DC: siNA duplex; sense SEQ ID NO: 55 B cuGAcGGcGAGGucAuGAA TTB; antisense SEQ ID NO: 56 UUCAuGAccucGccGucAGUU (sense CUGACGGCGAGGUCAUGAATT; antisense UUCAUGACCUCGCCGUCAGUU; sense: DNA at AGT, 2'-fluoro at CU, [invAb] at 5' end, 3' end, backbone not given here; antisense: sugars from the 5' end rrrmfmmffffmffmffmmmm, backbone not given here) | 19 ± 4% | 18 ± 4%
7 | 48040-DC: siNA duplex; sense SEQ ID NO: 45 B GAGuGGAGcGccuGuuccA TTB; antisense SEQ ID NO: 46 UGGAAcAGGcGcuccAcucUU (sense GAGUGGAGCGCCUGUUCCATT; antisense UGGAACAGGCGCUCCACUCUU; sense: DNA at AGT, 2'-fluoro at CU, [invAb] at 5' end, 3' end, backbone not given here; antisense: sugars from the 5' end rrrmmfmmmfmffffmfffmm, backbone not given here) | −1 ± 3% | 13 ± 18%
8 | 48060-DC: siNA duplex; sense SEQ ID NO: 85 B ucuGucAAccucAGAcAcu TTB; antisense SEQ ID NO: 86 AGUGucuGAGGuuGAcAGAUU (sense UCUGUCAACCUCAGACACUTT; antisense AGUGUCUGAGGUUGACAGAUU; sense: DNA at AGT, 2'-fluoro at CU, [invAb] at 5' end, 3' end, backbone not given here; antisense: sugars from the 5' end rrrmfffmmmmffmmfmmmmm, backbone not given here) | 74 ± 3% | 64 ± 8%
9 | 48051-DC: siNA duplex; sense SEQ ID NO: 67 B GGGuGuGUGAcGAGcccAA TTB; antisense SEQ ID NO: 68 UUGGGcucGucAcAcAcccUU (sense GGGUGUGUGACGAGCCCAATT; antisense UUGGGCUCGUCACACACCCUU; sense: sugars from the 5' end dddfdfddddfdddfffdddd, [invAb] at 5' end, 3' end, backbone not given here; antisense: sugars from the 5' end rrrmmfffmffmfmfmfffmm, backbone not given here) | 14 ± 11% | 15 ± 10%
10 | 48072-DC: siNA duplex; sense SEQ ID NO: 109 B AGuGuGcAcuGccAAAGAu TTB; antisense SEQ ID NO: 110 AUCuuuGGcAGuGcAcAcuUU (sense AGUGUGCACUGCCAAAGAUTT; antisense AUCUUUGGCAGUGCACACUUU; sense: DNA at AGT, 2'-fluoro at CU, [invAb] at 5' end, 3' end, backbone not given here; antisense: sugars from the 5' end rrrfffmmfmmfmfmfmffmm, backbone not given here) | 14 ± 6% | −8 ± 12%
11 | 48056-DC: siNA duplex; sense SEQ ID NO: 77 B cuGuGccuGccAuuAcAAc TTB; antisense SEQ ID NO: 78 GUUGuAAuGGcAGGcAcAGUU (sense CUGUGCCUGCCAUUACAACTT; antisense GUUGUAAUGGCAGGCACAGUU; sense: DNA at AGT, 2'-fluoro at CU, [invAb] at 5' end, 3' end, backbone not given here; antisense: sugars from the 5' end rrrmfmmfmmfmmmfmfmmmm, backbone not given here) | 20 ± 6% | 6 ± 7%
